Experiments:
tau protein = molecular target: T1, tau protein (Homo sapiens, UniProt P10636); assay: Tau-BiFC cell model, Forskolin-induced tau protein aggregation; format: cell-based; settings: for Tau BiFC in cells Response (%, @10 μM): 10 μM compound, BiFC fluorescence relative to Forskolin-only group (100% tau protein-aggregated state), 48 hours
T1 construct: fused on or other part: Split Venus fragments VN173 and VC155, each fused to one copy of tau as BiFC reporter halves
Description: (§1) In order to select novel tau protein aggregation—inhibiting substances, tau-BiFC cell model, in which formation of tau oligomers in living cells is easily observed, was used. Tau-BiFC cells were aliquoted into a 384-well plate. […] After 48 hours, nuclei in the cells were stained using Hoechst (at a treatment concentration of 2 μg/mL), and BiFC fluorescence intensity was automatically measured using Operetta (PerkinElmer) to count stained nuclei in each well out of the entire well plate. […] Furthermore, the degree of cytotoxicity induced by the newly synthesized compound was also measured based on the 100% cell viability of the group treated only with Forskolin as a reference, and the cytotoxicity value of each compound was calculated using the equation “(number of stained nuclei in group treated with compound/number of stained nuclei in group treated with Forskolin)×100”.
(§2) After 48 hours, tau protein aggregation reaction and degrees of cytotoxicity were analyzed by observing images of the cells. IC50 and toxicity of the compounds were analyzed by nonlinear regression analysis of Prism software (Graph Pad).

Tau-BiFC cells = assay: Cell viability (stained nuclei count) in tau-BiFC cells; settings: 10 μM compound; stained nuclei relative to Forskolin-only group (100%), 48 hours
Description: as §1, §2

CYP1A2 = molecular target: T2, CYP1A2 (Homo sapiens, UniProt P05177); assay: CYP coenzyme activity in human liver microsomes, CYP1A2; format: in vitro ADME; settings: 10 μM compound, human liver microsomes 0.25 mg/mL, substrate phenacetin, 15 minutes
T2 construct: human liver microsomes (0.25 mg/mL); from tissue; host or cells: human liver microsomes
T2 sequence (P05177 1-516): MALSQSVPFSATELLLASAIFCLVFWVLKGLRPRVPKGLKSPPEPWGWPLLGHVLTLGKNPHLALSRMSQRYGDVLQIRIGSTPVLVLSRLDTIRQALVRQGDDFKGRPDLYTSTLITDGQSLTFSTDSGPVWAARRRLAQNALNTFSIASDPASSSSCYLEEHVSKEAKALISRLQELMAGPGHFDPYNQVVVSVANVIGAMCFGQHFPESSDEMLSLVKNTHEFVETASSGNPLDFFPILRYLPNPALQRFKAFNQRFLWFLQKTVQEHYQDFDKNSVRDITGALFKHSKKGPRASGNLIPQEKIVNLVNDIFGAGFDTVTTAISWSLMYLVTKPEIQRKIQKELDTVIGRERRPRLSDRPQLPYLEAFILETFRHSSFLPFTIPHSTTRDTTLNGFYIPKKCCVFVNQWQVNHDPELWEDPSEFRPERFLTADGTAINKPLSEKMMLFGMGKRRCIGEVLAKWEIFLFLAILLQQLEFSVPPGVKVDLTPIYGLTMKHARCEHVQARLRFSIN
Description: (§3) Specifically, human liver microsomes (0.25 mg/mL), a 0.1 M phosphate buffer solution (pH 7.4), a substrate drug cocktail of five types of drug metabolism enzymes (50 μM phenacetin, 10 μM diclofenac, 100 μM S-mephenytoin, 5 μM dextromethorphan, and 2.5 μM midazolam), and the compound at a concentration of 0 μM or 10 μM were mixed and pre-cultured at 37° C. for 5 minutes, and then further cultured at 37° C. for 15 minutes together with an NADPH generation system solution added thereto. Thereafter, the reaction was terminated by adding an acetonitrile solution containing an internal standard material (terfenadine) and centrifuged for 5 minutes (14,000 rpm, 4° C.), and then a supernatant was injected into an LC-MS/MS system for simultaneous analysis of metabolites of the substrate drugs to thereby evaluate the inhibitory effects on drug metabolism.
(§4) Metabolites of each CYP coenzyme indicator drug generated through the reaction were analyzed using the Shimadzu Nexera XR system and TSQ Vantage (Thermo). In an HPLC column, Kinetex C18 (2.1 mm×100 mm, 2.6 μm particle size; Phenomenex, USA) was used, and mobile phases were (A) distilled water containing 0.1% formic acid and (B) acetonitrile containing 0.1% formic acid, and a gradient program shown in Table 3 was applied thereto.
(§5) The generated metabolites were quantified using a multiple reaction monitoring (MRM) quantification mode, and Xcalibur (version 1.6.1) was used for data analysis. In order to express the inhibitory effects of the novel compounds prepared according to the examples of the present invention on CYP coenzyme activity, CYP coenzyme activities (%) with respect to the control group not treated with any compound are shown in Table 4 below.

CYP2C9 = molecular target: T3, CYP2C9 (Homo sapiens, UniProt P11712); assay: CYP coenzyme activity in human liver microsomes, CYP2C9; format: in vitro ADME; settings: 10 μM compound, human liver microsomes 0.25 mg/mL, substrate diclofenac, 15 minutes
T3 construct: human liver microsomes (0.25 mg/mL); from tissue; host or cells: human liver microsomes
Description: as §3, §4, §5

CYP2C19 = molecular target: T4, CYP2C19 (Homo sapiens, UniProt P33261); assay: CYP coenzyme activity in human liver microsomes, CYP2C19; format: in vitro ADME; settings: 10 μM compound, human liver microsomes 0.25 mg/mL, substrate S-mephenytoin, 15 minutes
T4 construct: human liver microsomes (0.25 mg/mL); from tissue; host or cells: human liver microsomes
Description: as §3, §4, §5

CYP2D6 = molecular target: T5, CYP2D6 (Homo sapiens, UniProt P10635); assay: CYP coenzyme activity in human liver microsomes, CYP2D6; format: in vitro ADME; settings: 10 μM compound, human liver microsomes 0.25 mg/mL, substrate dextromethorphan, 15 minutes
T5 construct: human liver microsomes (0.25 mg/mL); from tissue; host or cells: human liver microsomes
Description: as §3, §4, §5

CYP3A4 = molecular target: T6, CYP3A4 (Homo sapiens, UniProt P08684); assay: CYP coenzyme activity in human liver microsomes, CYP3A4; format: in vitro ADME; settings: 10 μM compound, human liver microsomes 0.25 mg/mL, substrate midazolam, 15 minutes
T6 construct: human liver microsomes (0.25 mg/mL); from tissue; host or cells: human liver microsomes
Description: as §3, §4, §5

[1] = Liver microsome stability, human; format: in vitro ADME; settings: human liver microsomes 0.25 mg/mL, 1 μM compound, 37° C., 30 minutes, NADPH
Description: (§6) The stability of liver microsomes due to the compounds prepared according to Examples 1 to 14 was confirmed. Specifically, four types of liver microsomes (human, dog, rat, and mouse, each 0.25 mg/mL), a 0.1 M phosphate buffer solution (pH 7.4), and each of the compounds at a concentration of 1 μM were mixed and pre-cultured at 37° C. for 5 minutes and further cultured at 37° C. for 30 minutes together with an NADPH generation system solution added thereto. Thereafter, the reaction was terminated by adding an acetonitrile solution containing an internal standard material (chlorpropamide) and centrifuged for 5 minutes (14,000 rpm, 4° C.), and then a supernatant was injected into an LC-MS/MS system for analysis of substrate drugs to thereby evaluate metabolic stability due to 8 types of compounds.
(§7) The amount of the substrate remaining after the reaction was analyzed using the Shimadzu Nexera XR system and TSQ Vantage (Thermo). In an HPLC column, Kinetex XB-C18 (2.1 mm×100 mm, particle size of 2.6 μm; Phenomenex, USA) was used, and mobile phases were (A) distilled water containing 0.1% formic acid and (B) acetonitrile containing 0.1% formic acid. Analyst software (version 1.6.3) and Xcalibur (version 1.6.1) were used for data analysis.

[2] = Liver microsome stability, dog; format: in vitro ADME; settings: dog liver microsomes 0.25 mg/mL, 1 μM compound, 37° C., 30 minutes, NADPH
Description: as §6, §7

[3] = Liver microsome stability, rat; format: in vitro ADME; settings: rat liver microsomes 0.25 mg/mL, 1 μM compound, 37° C., 30 minutes, NADPH
Description: as §6, §7

[4] = Liver microsome stability, mouse; format: in vitro ADME; settings: mouse liver microsomes 0.25 mg/mL, 1 μM compound, 37° C., 30 minutes, NADPH
Description: as §6, §7

T1 sequence (P10636 2-441 isoform P10636-8 limits assumed): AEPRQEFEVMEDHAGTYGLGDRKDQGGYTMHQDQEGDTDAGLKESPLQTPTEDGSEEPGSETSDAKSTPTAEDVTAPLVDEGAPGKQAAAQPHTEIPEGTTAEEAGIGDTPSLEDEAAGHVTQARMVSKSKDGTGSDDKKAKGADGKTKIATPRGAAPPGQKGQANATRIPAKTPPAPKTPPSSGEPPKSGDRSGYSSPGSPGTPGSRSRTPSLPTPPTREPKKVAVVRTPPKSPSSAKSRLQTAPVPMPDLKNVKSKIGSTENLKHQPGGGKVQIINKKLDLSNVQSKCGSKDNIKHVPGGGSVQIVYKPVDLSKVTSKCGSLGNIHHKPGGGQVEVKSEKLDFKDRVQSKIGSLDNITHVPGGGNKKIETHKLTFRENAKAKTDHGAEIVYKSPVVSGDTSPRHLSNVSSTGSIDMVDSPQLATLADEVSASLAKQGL
T3 sequence (P11712 whole entry): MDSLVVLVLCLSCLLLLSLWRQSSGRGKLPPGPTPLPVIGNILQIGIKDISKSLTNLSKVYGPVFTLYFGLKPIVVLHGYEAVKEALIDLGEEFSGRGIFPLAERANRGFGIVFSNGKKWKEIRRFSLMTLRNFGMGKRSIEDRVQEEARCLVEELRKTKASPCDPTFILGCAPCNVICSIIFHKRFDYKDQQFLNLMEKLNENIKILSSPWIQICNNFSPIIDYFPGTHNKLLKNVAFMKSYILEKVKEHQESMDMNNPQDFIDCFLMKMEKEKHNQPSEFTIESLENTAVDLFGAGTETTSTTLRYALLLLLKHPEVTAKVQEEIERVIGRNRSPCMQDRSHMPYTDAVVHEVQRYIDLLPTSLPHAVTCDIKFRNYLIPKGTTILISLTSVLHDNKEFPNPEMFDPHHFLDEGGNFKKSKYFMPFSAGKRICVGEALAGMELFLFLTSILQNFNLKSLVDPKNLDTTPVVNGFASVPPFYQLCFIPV
T6 sequence (P08684 whole entry): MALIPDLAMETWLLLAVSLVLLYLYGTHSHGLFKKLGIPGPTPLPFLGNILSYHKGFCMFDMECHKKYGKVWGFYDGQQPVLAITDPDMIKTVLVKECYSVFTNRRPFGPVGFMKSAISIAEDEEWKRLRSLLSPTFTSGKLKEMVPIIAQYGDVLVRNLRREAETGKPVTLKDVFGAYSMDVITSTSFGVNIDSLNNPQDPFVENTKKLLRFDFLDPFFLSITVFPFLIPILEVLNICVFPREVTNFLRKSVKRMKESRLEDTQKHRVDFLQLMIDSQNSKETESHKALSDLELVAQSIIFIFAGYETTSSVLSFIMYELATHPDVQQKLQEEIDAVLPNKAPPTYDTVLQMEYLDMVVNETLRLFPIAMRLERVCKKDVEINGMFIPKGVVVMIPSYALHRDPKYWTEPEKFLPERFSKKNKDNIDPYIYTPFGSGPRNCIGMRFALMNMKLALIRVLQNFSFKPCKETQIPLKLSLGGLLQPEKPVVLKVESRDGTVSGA
T4 sequence (P33261 whole entry): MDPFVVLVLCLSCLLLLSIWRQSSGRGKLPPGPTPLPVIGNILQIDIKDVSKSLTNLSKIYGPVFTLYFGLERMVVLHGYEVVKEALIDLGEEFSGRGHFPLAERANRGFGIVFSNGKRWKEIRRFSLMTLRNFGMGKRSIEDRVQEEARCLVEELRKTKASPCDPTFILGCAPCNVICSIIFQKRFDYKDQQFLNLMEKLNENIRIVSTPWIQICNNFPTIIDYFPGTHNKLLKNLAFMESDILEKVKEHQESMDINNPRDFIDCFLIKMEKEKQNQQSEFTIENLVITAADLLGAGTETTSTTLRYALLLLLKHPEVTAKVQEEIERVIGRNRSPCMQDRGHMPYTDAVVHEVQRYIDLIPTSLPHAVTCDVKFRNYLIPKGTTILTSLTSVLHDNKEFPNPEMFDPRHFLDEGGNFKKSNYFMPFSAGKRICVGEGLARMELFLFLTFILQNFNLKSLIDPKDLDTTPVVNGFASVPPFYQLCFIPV
T5 sequence (P10635 whole entry): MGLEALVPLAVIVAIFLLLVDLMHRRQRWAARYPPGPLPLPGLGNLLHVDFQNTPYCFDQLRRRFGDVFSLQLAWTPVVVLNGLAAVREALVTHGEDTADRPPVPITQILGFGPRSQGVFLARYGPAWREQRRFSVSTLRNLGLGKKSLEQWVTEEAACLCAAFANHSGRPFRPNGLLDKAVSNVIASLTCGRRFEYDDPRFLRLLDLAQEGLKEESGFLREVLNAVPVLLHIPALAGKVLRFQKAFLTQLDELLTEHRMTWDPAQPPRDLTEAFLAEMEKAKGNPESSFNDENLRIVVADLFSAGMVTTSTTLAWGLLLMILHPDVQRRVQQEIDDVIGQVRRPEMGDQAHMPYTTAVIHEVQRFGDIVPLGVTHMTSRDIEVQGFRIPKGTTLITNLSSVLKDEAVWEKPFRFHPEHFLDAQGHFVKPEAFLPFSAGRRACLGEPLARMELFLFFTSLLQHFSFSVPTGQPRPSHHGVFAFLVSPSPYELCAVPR

| Structure (SMILES) | IC50 (tau protein) | Tau BiFC in cells Response (%, @10 μM) (tau protein) | Cell viability (%, @10 μM) (Tau-BiFC cells) | CYP1A2 activity (%) with respect to control group not treated with any compound (CYP1A2) | CYP2C9 activity (%) with respect to control group not treated with any compound (CYP2C9) | CYP2C19 activity (%) with respect to control group not treated with any compound (CYP2C19) | CYP2D6 activity (%) with respect to control group not treated with any compound (CYP2D6) | CYP3A4 activity (%) with respect to control group not treated with any compound (CYP3A4) | Human (%) amount remaining after the reaction [1] | Dog (%) amount remaining after the reaction [2] | Rat (%) amount remaining after the reaction [3] | Mouse (%) amount remaining after the reaction [4] |
| --- | --- | --- | --- | --- | --- | --- | --- | --- | --- | --- | --- | --- |
| CC1CC(=O)N(CC(F)(F)F)N=C1c1ccc(NN=C(C#N)C#N)cc1 (stereo not drawn) [Example 4, (4-(4-methyl-6-oxo-1-(2,2,2-trifluoroethyl)-1,4,5,6-tetrahydropyridazin-3-yl)phenyl)carbonohydrazonoyl dicyanide] | 450 nM | 0% | 98.7% | 74.8% | 55.6% | 45.5% | 62.1% | 74.2% | 98.2% | 95.6% | 96.8% | 89% |
| COCCN1N=C(c2ccc(NN=C(C#N)C#N)cc2)C(C)CC1=O (stereo not drawn) [Example 5, (4-(1-(2-methoxyethyl)-4-methyl-6-oxo-1,4,5,6-tetrahydropyridazin-3-yl)phenyl)carbonohydrazonoyl dicyanide] | 90 nM | 15.6% | 95.7% | 70% | 71.5% | 63.4% | 70.4% | 74.2% | 30.9% | >100% | 90.9% | 94.9% |
| CC1CC(=O)N(C2CC2)N=C1c1ccc(NN=C(C#N)C#N)cc1 (stereo not drawn) [Example 6, (4-(1-cyclopropyl-4-methyl-6-oxo-1,4,5,6-tetrahydropyridazin-3-yl)phenyl)carbonohydrazonoyl dicyanide] | 70 nM | 0% | 62.9% | 78.6% | 74.2% | 74.2% | 72.6% | 79.5% | 85% | 99.5% | 95.8% | 92.7% |
